Measurements from BigSolDB 2.1.

N=C(N)NC(N)=S
solubility (mole fraction)
Conditions | 283.15 K | 288.15 K | 293.15 K | 298.15 K | 303.15 K | 308.15 K | 313.15 K | 318.15 K | 323.15 K
in 1,4-dioxane | – | 0.00901 | 0.0107 | 0.0127 | 0.0151 | 0.0178 | 0.0208 | 0.0241 | 0.028
in NMP | 0.0139 | 0.0166 | 0.0195 | 0.0236 | 0.0281 | 0.0329 | 0.0389 | 0.0455 | 0.0532
in acetone | 0.0103 | 0.0123 | 0.0145 | 0.0175 | 0.0203 | 0.0241 | 0.028 | 0.0324 | 0.0371
in acetonitrile | 0.00365 | 0.00428 | 0.00504 | 0.00591 | 0.00688 | 0.008 | 0.00927 | 0.0105 | 0.0121
in cyclohexane | 3.6e-05 | 4.3e-05 | 5e-05 | 6e-05 | 7e-05 | 8.4e-05 | 9.9e-05 | 0.000118 | 0.00014
in ethanol | 0.0045 | 0.00521 | 0.00605 | 0.00706 | 0.00817 | 0.00933 | 0.0106 | 0.0122 | 0.014
in ethyl acetate | 0.00196 | 0.00245 | 0.00314 | 0.00391 | 0.00471 | 0.00569 | 0.00679 | 0.00797 | 0.0094
in isopropanol | 0.00124 | 0.00167 | 0.00223 | 0.00286 | 0.00363 | 0.00456 | 0.00559 | 0.0069 | 0.00854
in methanol | 0.00558 | 0.00635 | 0.00744 | 0.0089 | 0.0105 | 0.0123 | 0.0143 | 0.0165 | 0.0192
in n-butanol | 0.000477 | 0.000749 | 0.00111 | 0.00162 | 0.00226 | 0.00314 | 0.00432 | 0.00575 | 0.0076
in n-propanol | 0.00271 | 0.00326 | 0.00393 | 0.00468 | 0.00564 | 0.00676 | 0.00782 | 0.00901 | 0.0104
in toluene | 0.000126 | 0.000137 | 0.000149 | 0.00016 | 0.000174 | 0.000189 | 0.000206 | 0.000223 | 0.000243
